This is an account of results in US8710017B2, “Human and mouse targeting peptides identified by phage display” (priority 2000, dated 2014).

Test [1] has as its system chicken chorioallantoic membrane (CAM). The experiment in a line: CAM assay for angiogenesis. The test is classed as in vivo. How it is done: In vivo angiogenesis was evaluated by a CAM assay (Ribatti et al., 1994). Fertilized eggs from White Leghorn chickens were maintained in constant humidity at 37° C. On the third day of incubation, a square window was opened in the eggshell and 2-3 ml of albumen was removed to detach the developing CAM from the shell. The window was sealed with a glass plate of the same size and the eggs were returned to the incubator. At day 8, 1 mm^3 sterilized gelatin sponges (Gelfoam, Upjohn Co, Kalamazoo, Milan) were adsorbed with VEGF-A (20 ng, R&D System) and either […] (SEQ ID NO:123) or control […] (SEQ ID NO:124) peptide (1 mM) in 3 μl PBS and implanted on the top of the growing CAMs under sterile conditions. CAMs were examined daily until day 12 and photographed in ovo with a Leica stereomicroscope. Capillaries emerging from the sponge were counted. The assay was repeated twice.

For test [2], the system named is HUVECs. As to the kind of experiment: HUVEC chemotaxis assay (Boyden chamber, VEGF-A). Type of test: cell-based, human. The procedure: FIG. 24. […] (SEQ ID NO:123) inhibits HUVEC migration. HUVECs were stimulated with VEGF-A (10 ng/ml). The assay was performed in a Boyden microchemotaxis chamber, and cells were allowed to migrate through an 8-μm pore filter for 5 h at 37° C. […] (SEQ ID NO:124) (control) and […] (SEQ ID NO:123) peptides were tested at 1 mM concentration. Migrated cells were stained and five high-power fields (magnitude 100×) for each microwell were counted. Error bars are the standard error of the means of triplicate microwells.
A cell migration assay was performed in a 48-well microchemotaxis chamber (NeuroProbe, Gaithersburg, Md.) according to Bussolini et al. (1995). Polyvinylpyrrolidone-free polycarbonate filters (Nucleopore, Cambridge, Mass.) with 8-μm pores were coated with 1% gelatin for 10 min at room temperature and equilibrated in M199 medium supplemented with 2% FCS. […] (SEQ ID NO:123) or control […] (SEQ ID NO:124) peptide (1 mM) was placed in the lower compartment of a Boyden chamber in M199 medium supplemented with 2% FCS and 10 ng/ml VEGF-A (R&D System). Subconfluent cultures that had been starved overnight were harvested in PBS containing 2.5 mM EDTA, washed once in PBS, and resuspended in M199 medium containing 2% FCS at a final concentration of 2×10^6 cells/ml. After the filter was placed between the lower and upper chambers, 50 μl of the cell suspension was seeded in the upper compartment, and cells were allowed to migrate for 5 h at 37° C. in a humidified atmosphere with 5% CO2. The filter was then removed, and cells on the upper side were scraped with a rubber policeman. Migrated cells were fixed in methanol and stained with Giemsa solution (Diff-Quick, Baxter Diagnostics, Rome, Italy). Five random high-power fields (magnitude 100×) were counted in each well. Each assay was run in triplicate.

The subject of test [3] is HUVECs. As to the kind of experiment: Three-dimensional Matrigel culture of HUVECs (capillary-like network). The conditions noted are these: not shown. Type of test: cell-based, human. How it is done: Matrigel (Collaborative Research, Bedford, Mass.) was added at 100 μl per well to 48-well tissue culture plates and allowed to solidify for 10 min at 37° C. HUVECs were starved for 24 h in M199 medium supplemented with 2% FCS before being harvested in PBS containing 2.5 mM EDTA. 10^4 cells were gently added to each of the triplicate wells and allowed to adhere to the gel coating for 30 min at 37° C. Then, medium was replaced with indicated concentrations of […] (SEQ ID NO:123) or […] (SEQ ID NO:124) peptides in complete medium. The plates were photographed after 24 h with an inverted microscope (Canon). The assay was repeated three times.

Another test has as its target T1, APA (SK-RC-49/APA cells) (Homo sapiens, UniProt Q07075).
T1 construct: The renal carcinoma cell line SK-RC-49 was transfected with an expression vector encoding full-length APA cDNA; expressed in transfected cells; host or cells: SK-RC-49 renal carcinoma cells, stably transfected (G418)
As to the kind of experiment: Phage binding specificity assay on SK-RC-49/APA cells. The test is classed as cell-based. The conditions noted are these: soluble peptide in binding medium, not shown. The procedure: The cell binding assay was performed with an input of 10^9 TU as described for the cell panning. The specificity was confirmed by adding […] (SEQ ID NO:123) peptide to the binding medium in increasing concentrations. For phage binding on immunocaptured APA, wells were blocked for 1 h at room temperature with PBS/3% BSA and incubated with 10^9 TU for 1 h at room temperature in 50 μl PBS/3% BSA. After eight washes in PBS/1% BSA/0.01% Tween-20 and two washes in PBS, phage were rescued by adding 200 μl of exponentially growing K91Kan E. coli. Each experiment was repeated at least three times.

For test [4], the target named is T2, Aminopeptidase A (APA, EC 3.4.11.7) (Homo sapiens, UniProt Q07075).
T2 construct: The renal carcinoma cell line SK-RC-49 was transfected with an expression vector encoding full-length APA cDNA; expressed in transfected cells; host or cells: SK-RC-49 renal carcinoma cells, stably transfected (G418)
T2 sequence (Q07075 whole entry): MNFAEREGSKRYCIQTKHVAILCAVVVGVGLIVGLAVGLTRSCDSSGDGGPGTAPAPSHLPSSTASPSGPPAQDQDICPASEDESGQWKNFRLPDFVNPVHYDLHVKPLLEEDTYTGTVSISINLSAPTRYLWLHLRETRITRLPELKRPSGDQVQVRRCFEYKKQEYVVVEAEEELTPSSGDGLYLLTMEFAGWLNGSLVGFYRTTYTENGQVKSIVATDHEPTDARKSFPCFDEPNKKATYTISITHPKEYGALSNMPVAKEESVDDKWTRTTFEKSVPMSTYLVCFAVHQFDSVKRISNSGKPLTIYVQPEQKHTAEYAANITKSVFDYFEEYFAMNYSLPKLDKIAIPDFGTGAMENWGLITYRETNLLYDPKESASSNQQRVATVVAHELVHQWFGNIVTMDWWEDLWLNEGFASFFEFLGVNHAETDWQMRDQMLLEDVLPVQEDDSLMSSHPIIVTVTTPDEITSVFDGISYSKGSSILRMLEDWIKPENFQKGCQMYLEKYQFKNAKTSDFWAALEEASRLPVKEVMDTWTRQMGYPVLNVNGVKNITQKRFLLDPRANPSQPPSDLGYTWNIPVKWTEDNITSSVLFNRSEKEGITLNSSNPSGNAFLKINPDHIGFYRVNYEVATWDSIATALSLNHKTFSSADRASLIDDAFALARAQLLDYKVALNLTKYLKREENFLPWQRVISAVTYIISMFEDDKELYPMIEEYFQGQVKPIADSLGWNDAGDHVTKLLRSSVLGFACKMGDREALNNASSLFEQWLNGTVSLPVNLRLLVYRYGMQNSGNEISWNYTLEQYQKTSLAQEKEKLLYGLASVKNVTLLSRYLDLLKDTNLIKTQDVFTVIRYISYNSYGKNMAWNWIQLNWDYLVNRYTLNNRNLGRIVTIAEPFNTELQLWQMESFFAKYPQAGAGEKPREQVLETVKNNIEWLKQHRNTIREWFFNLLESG
The experiment in a line: APA enzyme assay (α-glutamyl-p-nitroanilide, SK-RC-49/APA cells). Type of test: biochemical. The note with it: highest concentration tested.

Test [5] relates to HUVECs. The experiment in a line: HUVEC cell growth assay (crystal violet, VEGF-A). The test is classed as cell-based, human. How it is done: FIG. 25. […] (SEQ ID NO:123) inhibits HUVEC proliferation. Cells were stimulated with VEGF-A (10 ng/ml), and growth was evaluated at the indicated times by a colorimetric assay based on crystal violet staining. Error bars are the standard error of the means of triplicate wells. Each experiment was repeated at least twice with similar results.
HUVECs were seeded in 48-well plates (10^4 cells/well) and allowed to attach for 24 h in complete M199 medium. The cells were then starved in M199 medium containing 2% FCS for 24 h. […] (SEQ ID NO:123) or control […] (SEQ ID NO:124) peptide (1 mM) was added to the wells in medium containing 2% FCS and 10 ng/ml VEGF-A (R&D System, Abingdom, UK). After incubation for the indicated times, cells were fixed in 2.5% glutaraldehyde, stained with 0.1% crystal violet in 20% methanol, and solubilized in 10% acetic acid. All treatments were done in triplicate. Cell growth was evaluated by measuring the O.D. at 590 nm in a microplate reader (Biorad, Hercules, Calif.). A calibration curve was established and a linear correlation between O.D. and cell counts was observed between 10^3 and 10^5 cells.

Test [6] addresses T3, β3 integrin cytoplasmic domain (Homo sapiens, UniProt P05106).
T3 construct: recombinant fusion proteins containing β3 or β5 cytoplasmic domains
T3 sequence (P05106 742-788 limits assumed): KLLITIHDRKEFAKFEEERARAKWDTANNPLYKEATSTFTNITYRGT
As to the kind of experiment: Binding of Fyn-phosphorylated phage to β3 cytoplasmic domain. The note with it: phage phosphorylated by Fyn versus unphosphorylated phage. How it is done:
Phosphorylation of peptide libraries with src family protein kinases (Fyn, c-Src, Lyn, and Syc) and serine/threonine kinases such as a MAP kinase were performed as described previously (Schmitz et al., 1996; Dente et al., 1997; Gram et al., 1997). Briefly, phage particles were collected from culture supernatants by double precipitation with 20% polyethylene glycol 8000 in 2.5 M NaCl. Particles were dissolved at 10^12 particles/ml. Purified phage (10 μl) were incubated for 3 hours at room temperature with different concentrations (35 to 3,500 units) of protein kinases in a reaction buffer volume of 50 μl. The reaction mixtures were transferred to tubes containing 10 μg of agarose-conjugated anti-P-Tyr, anti-P-Ser, or anti-P-Thr monoclonal antibodies to select phage displaying phosphorylated peptides. […] Phosphorylated peptides binding to β3 and β5 cytoplasmic domains were analyzed as described in the previous section.
Randomly selected clones from rounds III and IV were sequenced from a X4YX4 phosphorylated library with Fyn. […] The ratio of binding to β3 or β5 was calculated by dividing the number of β3 or β5 colonies by GST or BSA colonies found after panning. The ratio of binding to β3 or β5 with phosphorylated phage by Fyn versus unphosphorylated phage was calculated by dividing the number of colonies found after the panning. […]

Setting [7] is: lower concentrations, not shown.

Peptide text beside a SMILES is read from it.

T1 sequence (Q07075 whole entry): as the sequence (Q07075 whole entry) above

Regarding `CC[C@H](C)[C@H](NC(=O)[C@H](CO)NC(=O)[C@H](CCC(=O)O)NC(=O)[C@H](CS)NC(=O)[C@H](CCC(=O)O)NC(=O)[C@H](CCCNC(=N)N)NC(=O)[C@@H]1CCCN1C(=O)[C@@H](N)CS)C(=O)N[C@@H](CS)C(=O)O` (H-CPRECESIC-OH), in test [1] (1 mM, VEGF-A 20 ng, day 12), the “inhibition of VEGF-A-induced neovascularization (number of capillaries emerging from the sponge)” value was 40%. The “effect on the number of growing vessels” value in test [1] (lower peptide concentrations, not shown) was “no effect”. The “inhibition of chemotaxis of HUVECs” value in the test with HUVECs [2] (1 mM, VEGF-A 10 ng/ml, 5 h, FIG. 24) was found to be 70%. Also, the “effect on cell migration” value in the test with HUVECs [2] (setting [7]) was “no significant effect”. Also, in the test with HUVECs [3] (1 mM, 24 h), the “HUVEC morphogenesis / capillary-like network” value is “vessel-like branching structures were significantly fewer and shorter”. In the test on HUVECs [3] (increasing concentrations), the “formation of capillary-like network” value is reported as “progressive impairment of the formation of this network”. In addition, the “competition with CPKVCPRECESNC phage for binding to SK-RC-49/APA cells” value on APA (SK-RC-49/APA cells) was “competed”. Also, in test [4], the “reduction of APA enzyme activity” value is given as 60%. The “inhibition of HUVEC proliferation” value with HUVECs [5] (1 mM, VEGF-A 10 ng/ml, FIG. 25) is given as 50%. Also, the “effect on cell proliferation” value in the test with HUVECs [5] (setting [7]) is recorded as “no significant effect”.

The molecule MLLGYRFEK returned a Phos/Unphos in test [6] of 2.5.
